The target in series [1] is T1, Acetylcholinesterase (Homo sapiens, UniProt P22303). Briefly: Non-competitive inhibition of recombinant human erythrocyte AChE at 1 to 10 uM using acetylthiocholine iodide as substrate preincubated for 30 mins followed by substrate addition and measured after 30 mins by Lineweaver-burk plot analysis. The settings on record: dose 1-10 µM, time 60.0 min.
Series [2] deals with T1, Acetylcholinesterase. Kind of series: Inhibition of recombinant human erythrocyte AChE using acetylthiocholine iodide as substrate preincubated for 30 mins followed by substrate addition and measured after 30 mins by spectrophotometry based Ellman's method.
For series [3], the target named is Cholinesterase (Equus caballus) (UniProt P81908). Kind of series: Inhibition of […] equine serum BuChE at 20 uM using butyryl thiocholine iodide as substrate preincubated for 30 mins followed by substrate addition and measured after 30 mins by spectrophotometry based Ellman's method relative to control. In kind it is cell-free. Particulars: time 60.0 min. For orientation: In Ellman's method for cholinesterases, released thiocholine reacts with DTNB.
Sequence of Cholinesterase (Equus caballus) (P81908 whole entry): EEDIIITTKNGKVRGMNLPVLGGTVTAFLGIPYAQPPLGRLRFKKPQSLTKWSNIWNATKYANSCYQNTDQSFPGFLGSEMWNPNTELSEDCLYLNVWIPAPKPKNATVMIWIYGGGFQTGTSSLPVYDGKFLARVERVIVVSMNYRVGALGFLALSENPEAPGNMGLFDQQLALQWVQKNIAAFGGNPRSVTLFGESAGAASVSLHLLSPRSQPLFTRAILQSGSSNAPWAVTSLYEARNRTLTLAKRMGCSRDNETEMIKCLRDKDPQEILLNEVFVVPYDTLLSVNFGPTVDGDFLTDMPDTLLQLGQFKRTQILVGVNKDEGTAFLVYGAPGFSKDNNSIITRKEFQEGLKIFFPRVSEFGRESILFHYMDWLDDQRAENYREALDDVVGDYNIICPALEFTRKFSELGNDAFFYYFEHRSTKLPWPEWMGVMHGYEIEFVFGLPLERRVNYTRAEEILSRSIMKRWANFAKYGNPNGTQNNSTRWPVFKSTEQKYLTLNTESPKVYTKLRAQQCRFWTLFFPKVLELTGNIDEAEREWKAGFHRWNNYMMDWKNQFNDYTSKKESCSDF

A further series has as its target Cholinesterase (Equus caballus, UniProt P81908). Briefly: Inhibition of […] equine serum BuChE using butyryl thiocholine iodide as substrate preincubated for 30 mins followed by substrate addition and measured after 30 mins by spectrophotometry based Ellman's method. It counts as cell-free.
The target in series [4] is Cholinesterase (Equus caballus) (UniProt P81908). Briefly: Mixed-type inhibition of […] equine serum BuChE at 7.5 to 30 uM using butyryl thiocholine iodide as substrate preincubated for 30 mins followed by substrate addition and measured after 30 mins by Lineweaver-burk plot analysis. In kind it is cell-free. Particulars: dose 7.5-30 µM, time 60.0 min.
A short description of series [5]: Antioxidant activity assessed as DPPH radical scavenging activity at 20 uM incubated for 25 mins in shaker relative to control. In kind it is functional. In general terms: The DPPH test is a chemical assay of radical scavenging.
The nature of series [6]: Antioxidant activity assessed as DPPH radical scavenging activity incubated for 25 mins in shaker. In kind it is functional.
The nature of series [7]: Metal chelating activity assessed as Fe3+-compound complex formation at 300 uM measured for 30 mins by UV-Visible spectrophotometric method.
The nature of series [8]: Metal chelating activity assessed as Fe3+-compound complex formation at 300 uM measured for 30 mins by MS-MS analysis.
A further series is filed under the species Homo sapiens. Briefly: Disruption of human amyloid beta 1 to 42 assessed as effect on amyloid beta 1 to 42 morphology at 1.58 uM incubated for 10 days by atomic force microscopic analysis. Particulars: time 10.0 day.
A short description of series [9]: Cytotoxicity against human SH-SY5Y cells assessed as reduction in cell viability at 20 uM incubated for 24 hrs by MTT assay. In kind it is cell-based. The settings on record: read-out: INH. (Tetrazolium dyes change colour on reduction, which living cells bring about.)
Series [10] is described as follows: Acute toxicity in Swiss albino mouse assessed as organism death at 500 mg/kg, po administered once and observed for 14 days. It counts as organism-based. Particulars: in vivo, 336 h, time 14 day.
Series [11] is described as follows: Acute toxicity in Swiss albino mouse assessed as abnormal behaviour at 500 mg/kg, po administered once and observed for 14 days. It counts as organism-based. Particulars: in vivo, 336 h, time 14 day.
The nature of series [12]: Acute toxicity in Swiss albino mouse assessed as effect on water consumption at 500 mg/kg, po administered once and observed for 14 days. In kind it is organism-based. The settings on record: in vivo, 336 h, time 14 day.
A short description of series [13]: Acute toxicity in Swiss albino mouse assessed as effect on food consumption at 500 mg/kg, po administered once and observed for 14 days. Particulars: in vivo, 336 h, time 14 day. It counts as organism-based.
Series [14] is described as follows: Acute toxicity in Swiss albino mouse assessed as effect on body weight at 500 mg/kg, po administered once and observed for 14 days. In kind it is organism-based. Particulars: in vivo, 336 h, time 14 day.
Series [15] in a line: Acute toxicity in Swiss albino mouse assessed as liver damage at 500 mg/kg, po administered once and observed after 14 days by microscopic analysis. It counts as organism-based. Particulars: in vivo, 336 h, time 14 day.
Series [16] has as its system Mus musculus. Briefly: Memory enhancement effect in scopolamine-induced Swiss albino mouse model of amnesia assessed as increase in spontaneous alteration at 6.25 to 25 mg/kg, po administered for 7 days and observed after 30 mins before scopolamine treatment and measured after 15 mins by Y-maze test. Particulars: dose 6.25-25 mg/kg, time 7.0 day. It counts as functional, organism-based.

Series [17] has as its system Mus musculus. Briefly: Memory enhancement effect in scopolamine-induced Swiss albino mouse model of amnesia assessed as effect on total arm entries at 6.25 to 25 mg/kg, po administered for 7 days and observed after 30 mins before scopolamine treatment and measured after 15 mins by Y-maze test. In kind it is functional, organism-based. Particulars: dose 6.25-25 mg/kg, time 7.0 day.

Series [18] has as its system Mus musculus. Briefly: Ex vivo inhibition of AChE in brain of scopolamine-induced Swiss albino mouse model of amnesia at 6.25 to 25 mg/kg, po administered for 7 days and observed after 30 mins before scopolamine treatment and measured after 15 mins using acetylthiocholine iodide as substrate by Ellman's method. In kind it is functional, organism-based. Particulars: dose 6.25-25 mg/kg, time 7.0 day.

Series [19] deals with Mus musculus. Briefly: Ex vivo inhibition of BChE in brain of scopolamine-induced Swiss albino mouse model of amnesia at 6.25 to 25 mg/kg, po administered for 7 days and observed after 30 mins before scopolamine treatment and measured after 15 mins using butyryl thiocholine iodide as substrate by Ellman's method. In kind it is functional, organism-based. Particulars: dose 6.25-25 mg/kg, time 7.0 day.

The subject of series [20] is Mus musculus. Kind of series: Ex vivo antioxidant activity in brain of scopolamine-induced Swiss albino mouse model of amnesia assessed as increase in SOD level at 6.25 to 25 mg/kg, po administered for 7 days and observed after 30 mins before scopolamine treatment and measured after 15 mins. In kind it is functional, organism-based. Particulars: dose 6.25-25 mg/kg, time 7.0 day.

The test system of series [21] is Mus musculus. Briefly: Ex vivo antioxidant activity in brain of scopolamine-induced Swiss albino mouse model of amnesia assessed as increase in CAT level at 6.25 to 25 mg/kg, po administered for 7 days and observed after 30 mins before scopolamine treatment and measured after 15 mins. It counts as functional, organism-based. Particulars: dose 6.25-25 mg/kg, time 7.0 day.

The test system of series [22] is Mus musculus. Kind of series: Ex vivo antioxidant activity in brain of scopolamine-induced Swiss albino mouse model of amnesia assessed as decrease in MDA level at 6.25 to 25 mg/kg, po administered for 7 days and observed after 30 mins before scopolamine treatment and measured after 15 mins. In kind it is functional, organism-based. Particulars: dose 6.25-25 mg/kg, time 7.0 day.

Activity calls are given as the source filed them. The calls are words filed in the database; no cut-off is given here.

T1 sequence (P22303 whole entry): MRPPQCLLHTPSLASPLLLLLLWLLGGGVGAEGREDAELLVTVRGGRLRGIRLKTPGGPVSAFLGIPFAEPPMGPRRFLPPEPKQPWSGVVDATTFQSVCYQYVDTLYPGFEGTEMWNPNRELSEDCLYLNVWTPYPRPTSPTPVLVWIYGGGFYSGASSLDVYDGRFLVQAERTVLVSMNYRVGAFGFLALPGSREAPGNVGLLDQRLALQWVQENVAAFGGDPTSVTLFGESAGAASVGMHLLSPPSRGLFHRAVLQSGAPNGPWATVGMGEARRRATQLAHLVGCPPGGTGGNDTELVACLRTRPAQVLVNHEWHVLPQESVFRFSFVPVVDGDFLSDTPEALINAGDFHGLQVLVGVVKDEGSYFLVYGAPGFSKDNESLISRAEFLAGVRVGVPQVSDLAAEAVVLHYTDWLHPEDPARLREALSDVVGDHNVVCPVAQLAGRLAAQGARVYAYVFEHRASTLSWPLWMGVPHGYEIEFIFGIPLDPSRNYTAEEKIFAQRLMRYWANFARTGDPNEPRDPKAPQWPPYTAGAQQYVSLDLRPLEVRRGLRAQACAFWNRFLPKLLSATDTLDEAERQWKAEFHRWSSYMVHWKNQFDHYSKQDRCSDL
Sequence of Cholinesterase (P81908 whole entry): as the sequence (P81908 whole entry) above

By inhibition is commonly meant how much of the control response was suppressed. What is called IC50 is the concentration that inhibits the measured activity by half. Regarding `COc1cc(/C=C/C(=O)NCC(=O)Nc2ccc3[nH]ccc3c2)ccc1O`, the inhibition result (at Acetylcholinesterase [1]; in [4]) was “Active” in each case. Moreover, the concentration for half-maximal inhibition (IC50) is 5.74 µM at Acetylcholinesterase [2], 14 µM on Cholinesterase and 57.4 µM in series [6]. In addition, the inhibition in series [3] was found to be 58.7%. The Activity in [5] is 31.3%; in series [10] it was “Non-Toxic”; in [11] it was “Non-Toxic”; in series [12], “Non-Toxic”; in series [13] it was “Non-Toxic”; in series [14], “Non-Toxic”. The Activity result in series [15] is “Non-Toxic”. Further, the outcome (in [7]; in series [8]; in the series listed under Homo sapiens; with Mus musculus [16]; in the series with Mus musculus [17]; with Mus musculus [18]) was Active. In addition, the outcome in the series on Mus musculus [19], in the series with Mus musculus [20], with Mus musculus [21] and in the series with Mus musculus [22] was Active. In addition, the cytotoxicity at 24 h, 20 µM in series [9] turned out to be 4.39%.

These data come from ChEMBL document CHEMBL4765306, “Design, synthesis and biological evaluation of novel naturally-inspired multifunctional molecules for the management of Alzheimer's disease” (Eur J Med Chem, 2020).
